{"source": "patent US7071221B2", "about": "“Heterocyclic oxime compounds” (Les Laboratoires Servier, priority 2004, dated 2006)", "test_system": "ob/ob mouse", "experiment": "Antidiabetic and hypolipidaemic effect in the ob/ob mouse", "format": "in vivo", "conditions": "female ob/ob mouse; for decrease of glycaemia compared to the control group: twice per day for four days (10 mg/kg i.p. or 30 mg/kg per os; route not given), glycaemia 24 hours after final administration", "excerpt": "Mutations in laboratory animals and also different sensitivities to dietary regimens have allowed the development of animal models having non-insulin dependent diabetes and hyperlipidaemia associated with obesity and with resistance to insulin.\nGenetic mice models (ob/ob) (Diabetes, 1982, 31 (1), 1–6) and Zucker (fa/fa) rats have been developed by various laboratories in order to understand the physiopathology of those diseases and test the efficacy of new antidiabetic compounds (Diabetes, 1983, 32, 830–838).\nAntidiabetic and Hypolipidaemic Effect in the ob/ob Mouse\nThe 10-week-old female ob/ob mouse (Harlan) is used for the in vivo tests. The animals are kept in a light-darkness cycle of 12 hours at 25° C. The mouse has a basal hyperglycaemia of 2 g/l. The animals are randomly selected in terms of their glycaemia to form groups of six. The compounds tested by the intraperitoneal route are dissolved in a mixture of dimethyl sulphoxide (10%) and Solutol (15%) to be administered at 10 mg/kg in a volume of 2.5 ml/kg twice per day for four days. By the per os route, the compounds are tested at 30 mg/kg administered in a volume of 2.5 ml/kg of 1% HEC twice per day for four days. The control groups receive the solvents under the same conditions as the treated groups. The activity of the products is evaluated by measuring glycaemia 24 hours after the final administration and by measuring body weight daily."}
{"smiles": "CON=C(c1ccccc1)c1ccc2c(c1)sc(=O)n2CCOc1ccc(CC(OCC(F)(F)F)C(=O)OC)cc1", "note": "(centres unmarked) [Example 3, Methyl 3-{4-[2-(6-[(methoxyimino)(phenyl)methyl]-2-oxo-1,3-benzothiazol-3(2H)-yl)ethoxy]phenyl}-2-(2,2,2-trifluoroethoxy)-propanoate]", "values": [{"measurement": "decrease of the gain of weight compared to the control group", "setting": "twice per day for four days", "result": 80, "unit": "%"}, {"measurement": "decrease of glycaemia compared to the control group", "result": 51, "unit": "%"}]}
{"smiles": "CN(CCOc1ccc(CC2SC(=O)NC2=O)cc1)c1ccccn1", "note": "(centres unmarked) [Rosiglitazone, rosiglitazone]", "values": [{"measurement": "change in body weight", "setting": "four days treatment, body weight measured daily", "result": "significant increase"}, {"measurement": "increase of the body weight compared to the increase of body weight of the control group", "setting": "twice per day for four days", "result": 33, "unit": "%"}, {"measurement": "decrease of glycaemia compared to the control group", "result": 61, "unit": "%"}]}
